Conditions: Liquid; for viscosity: Vibrating wire viscometry; for mass density: vibrating wire

COCOC [dimethoxymethane]
Conditions | mass density [kg/m3] | viscosity [mPa·s]
243.15 K, 100 kPa | 917.773 | 0.6298
243.15 K, 4400 kPa | 921.19 | 0.651
243.15 K, 9420 kPa | 924.889 | 0.6752
243.15 K, 14450 kPa | 928.455 | 0.7003
243.15 K, 19440 kPa | 931.885 | 0.7258
253.15 K, 100 kPa | 905.693 | 0.5389
253.15 K, 4420 kPa | 909.439 | 0.556
253.15 K, 9410 kPa | 913.399 | 0.5769
253.15 K, 14450 kPa | 917.473 | 0.5975
253.15 K, 19440 kPa | 921.171 | 0.6191
263.15 K, 100 kPa | 893.705 | 0.4697
263.15 K, 4440 kPa | 897.611 | 0.4857
263.15 K, 9440 kPa | 901.958 | 0.5039
263.15 K, 14470 kPa | 906.179 | 0.5215
263.15 K, 19470 kPa | 910.144 | 0.5406
273.15 K, 100 kPa | 881.433 | 0.4145
273.15 K, 4440 kPa | 885.755 | 0.4285
273.15 K, 9440 kPa | 890.38 | 0.4446
273.15 K, 14480 kPa | 894.826 | 0.4615
273.15 K, 19540 kPa | 899.081 | 0.4783
283.15 K, 100 kPa | 869.282 | 0.3685
283.15 K, 4450 kPa | 873.902 | 0.3818
283.15 K, 9430 kPa | 878.977 | 0.3964
283.15 K, 14490 kPa | 883.736 | 0.4114
283.15 K, 19550 kPa | 888.33 | 0.4265
293.15 K, 100 kPa | 857.043 | 0.3303
293.15 K, 4410 kPa | 862.006 | 0.342
293.15 K, 9460 kPa | 867.484 | 0.3559
293.15 K, 14490 kPa | 872.625 | 0.3692
293.15 K, 19550 kPa | 877.53 | 0.3832
303.15 K, 100 kPa | 844.252 | 0.2963
303.15 K, 4450 kPa | 849.702 | 0.3076
303.15 K, 9450 kPa | 855.591 | 0.3199
303.15 K, 14490 kPa | 861.24 | 0.3323
303.15 K, 19550 kPa | 866.565 | 0.345
313.15 K, 160 kPa | 831.685 | 0.2682
313.15 K, 4440 kPa | 837.579 | 0.2785
313.15 K, 9420 kPa | 843.933 | 0.2905
313.15 K, 14450 kPa | 849.923 | 0.3022
313.15 K, 19440 kPa | 855.5 | 0.3137
323.15 K, 190 kPa | 818.682 | 0.2436
323.15 K, 4390 kPa | 824.99 | 0.2532
323.15 K, 9420 kPa | 832.095 | 0.2644
323.15 K, 14460 kPa | 838.549 | 0.2758
323.15 K, 19490 kPa | 844.585 | 0.2866
333.15 K, 210 kPa | 805.334 | 0.2202
333.15 K, 4390 kPa | 812.279 | 0.229
333.15 K, 9410 kPa | 819.852 | 0.2401
333.15 K, 14450 kPa | 826.872 | 0.2504
333.15 K, 19450 kPa | 833.322 | 0.261
343.15 K, 280 kPa | 791.705 | 0.2009
343.15 K, 4430 kPa | 799.263 | 0.2096
343.15 K, 9430 kPa | 807.432 | 0.2203
343.15 K, 14460 kPa | 815.084 | 0.2301
343.15 K, 19460 kPa | 822.037 | 0.24
353.15 K, 360 kPa | 777.688 | 0.1837
353.15 K, 4370 kPa | 785.794 | 0.1922
353.15 K, 9400 kPa | 794.895 | 0.2024
353.15 K, 14450 kPa | 803.147 | 0.2123
353.15 K, 19430 kPa | 810.634 | 0.2217
363.15 K, 430 kPa | 763.12 | 0.1688
363.15 K, 4400 kPa | 772.066 | 0.1767
363.15 K, 9410 kPa | 782.127 | 0.1868
363.15 K, 14450 kPa | 791.118 | 0.1963
363.15 K, 19460 kPa | 799.153 | 0.2059
373.15 K, 550 kPa | 748.032 | 0.1551
373.15 K, 4370 kPa | 757.736 | 0.1628
373.15 K, 9400 kPa | 768.901 | 0.1728
373.15 K, 14450 kPa | 778.77 | 0.1822
373.15 K, 19480 kPa | 787.494 | 0.1914

COCCOC [1,2-dimethoxyethane]
Conditions | mass density [kg/m3] | viscosity [mPa·s]
243.15 K, 100 kPa | 919.667 | 0.8856
243.15 K, 4540 kPa | 923.045 | 0.9166
243.15 K, 9560 kPa | 926.586 | 0.9502
243.15 K, 14590 kPa | 928.901 | 0.9855
243.15 K, 19470 kPa | 931.879 | 1.017
253.15 K, 100 kPa | 909.614 | 0.7464
253.15 K, 4550 kPa | 912.595 | 0.7729
253.15 K, 9550 kPa | 915.73 | 0.7995
253.15 K, 14450 kPa | 917.844 | 0.8296
253.15 K, 19430 kPa | 921.699 | 0.858
263.15 K, 100 kPa | 899.206 | 0.642
263.15 K, 4560 kPa | 901.757 | 0.6618
263.15 K, 9590 kPa | 904.482 | 0.6849
263.15 K, 14590 kPa | 908.179 | 0.7095
263.15 K, 19460 kPa | 911.986 | 0.7337
273.15 K, 100 kPa | 887.607 | 0.5585
273.15 K, 4560 kPa | 890.738 | 0.5759
273.15 K, 9590 kPa | 894.412 | 0.5961
273.15 K, 14550 kPa | 898.792 | 0.6173
273.15 K, 19480 kPa | 903.248 | 0.6392
283.15 K, 100 kPa | 876.889 | 0.4904
283.15 K, 4550 kPa | 880.455 | 0.5056
283.15 K, 9570 kPa | 884.621 | 0.525
283.15 K, 14460 kPa | 889.18 | 0.5458
283.15 K, 19450 kPa | 892.89 | 0.5619
293.15 K, 100 kPa | 866.528 | 0.4341
293.15 K, 4530 kPa | 869.991 | 0.4492
293.15 K, 9560 kPa | 875.037 | 0.4673
293.15 K, 14460 kPa | 879.707 | 0.485
293.15 K, 19450 kPa | 883.646 | 0.5011
303.15 K, 100 kPa | 855.111 | 0.3896
303.15 K, 4540 kPa | 859.667 | 0.4031
303.15 K, 9500 kPa | 865.15 | 0.4197
303.15 K, 14440 kPa | 869.454 | 0.4334
303.15 K, 19440 kPa | 873.398 | 0.4494
313.15 K, 100 kPa | 843.765 | 0.3512
313.15 K, 4540 kPa | 848.633 | 0.3641
313.15 K, 9500 kPa | 854.082 | 0.3784
313.15 K, 14440 kPa | 858.578 | 0.3922
313.15 K, 19420 kPa | 863.033 | 0.4055
323.15 K, 100 kPa | 832.929 | 0.3189
323.15 K, 4560 kPa | 838.334 | 0.3303
323.15 K, 9530 kPa | 843.798 | 0.3433
323.15 K, 14450 kPa | 848.464 | 0.3562
323.15 K, 19460 kPa | 852.959 | 0.3693
333.15 K, 100 kPa | 822.133 | 0.2903
333.15 K, 4550 kPa | 827.195 | 0.3018
333.15 K, 9570 kPa | 833.307 | 0.3129
333.15 K, 14460 kPa | 837.525 | 0.3256
333.15 K, 19430 kPa | 842.805 | 0.3372
343.15 K, 100 kPa | 809.48 | 0.2653
343.15 K, 4540 kPa | 815.487 | 0.2754
343.15 K, 9560 kPa | 821.858 | 0.2868
343.15 K, 14440 kPa | 827.359 | 0.2985
343.15 K, 19420 kPa | 832.794 | 0.3093
353.15 K, 360 kPa | 798.071 | 0.2437
353.15 K, 4560 kPa | 803.982 | 0.2539
353.15 K, 9570 kPa | 810.723 | 0.2642
353.15 K, 14440 kPa | 817.205 | 0.2754
353.15 K, 19420 kPa | 822.843 | 0.2858
363.15 K, 160 kPa | 785.42 | 0.2233
363.15 K, 4560 kPa | 792.463 | 0.233
363.15 K, 9570 kPa | 799.914 | 0.2438
363.15 K, 14440 kPa | 806.21 | 0.2557
363.15 K, 19420 kPa | 812.462 | 0.2641
373.15 K, 200 kPa | 772.627 | 0.2059
373.15 K, 4560 kPa | 780.565 | 0.2157
373.15 K, 9580 kPa | 788.637 | 0.2263
373.15 K, 14440 kPa | 795.752 | 0.2355
373.15 K, 19420 kPa | 802.7 | 0.2457

Reference: the NIST ThermoML archive (doi:10.1007/s10765-008-0503-0)
